Experimental data as given in patent publication US7326768B2, “Goodpasture antigen-binding protein isoforms and protein misfolded-mediated disorders” (priority 2003, dated 2008).
“Also recorded” adds a separate entry of the source.

Tests used:
[1] = test system: C57BL/6 mice; assay: DAB-Am-4 treatment of control mice (genetic background control); assay type: in vivo; conditions: C57BL/6 control mice
Method: Animal studies. NZW, male or female, 4-6 month-old were injected intraperitoneally either with 1 μg/g of body weight of DAB-Am-4 and/or with 20 μg/g of body weight of the Q2L or Q2D peptide. These products were administered in a volume of 500 μl of steril saline solution 3 times per week, at alternate days, during 12 consecutive weeks. Age-matched uninjected mice were used as controls. At the end of the experiment, mice were sacrificed and kidneys were fixed in 10% paraformaldehide and processed for pathological studies. Similar DAB-Am-4 treatment studies were performed on C57BL/6 animals for genetic background control.

[2] = target: T1, recombinant human GPBP (Homo sapiens, UniProt Q9Y5P4); assay: In vitro phosphorylation: GPBP kinase activity / autophosphorylation; conditions: for effect on GPBP autophosphorylation at decreasing concentrations: decreasing concentrations up to 10 μM; for GPBP kinase activity in vitro (autophosphorylation): modulators at 200 μM, 10 min autophosphorylation reaction
T1 sequence (Q9Y5P4 1-624): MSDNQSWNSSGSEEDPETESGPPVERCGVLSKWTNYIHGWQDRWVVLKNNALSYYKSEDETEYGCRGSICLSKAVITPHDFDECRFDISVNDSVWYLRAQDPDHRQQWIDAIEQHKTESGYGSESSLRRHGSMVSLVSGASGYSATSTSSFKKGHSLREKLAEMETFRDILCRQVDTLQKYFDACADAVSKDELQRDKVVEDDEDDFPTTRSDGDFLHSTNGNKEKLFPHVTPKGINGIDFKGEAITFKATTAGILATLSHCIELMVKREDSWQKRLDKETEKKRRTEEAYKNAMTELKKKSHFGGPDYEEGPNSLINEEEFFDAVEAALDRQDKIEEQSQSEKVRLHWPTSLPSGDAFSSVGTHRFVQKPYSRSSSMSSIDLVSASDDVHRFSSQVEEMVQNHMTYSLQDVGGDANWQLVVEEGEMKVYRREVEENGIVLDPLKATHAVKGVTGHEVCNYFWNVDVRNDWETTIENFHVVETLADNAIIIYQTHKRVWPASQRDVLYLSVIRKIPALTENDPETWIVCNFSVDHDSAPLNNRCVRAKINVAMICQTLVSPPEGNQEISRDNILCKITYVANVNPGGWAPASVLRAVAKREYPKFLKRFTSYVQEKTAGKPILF

[3] = test system: α3(IV)NC1-expressing cells (HEK293); assay: α3(IV)NC1 conformer production in cultured cells (Western blot of culture media); assay type: cell-based, human; conditions: for α3(IV)NC1 conformer production in cultured cells: synthetic peptides 100-200 μM, organic compounds 5-50 μM, 24-48 h
[4] = test system: NZW mice; assay: Degenerative glomerulopathy in NZW mice (histochemical studies of kidney); assay type: in vivo
[5] = target: GPBP-PrP^C complex (Homo sapiens, UniProt Q9Y5P4); assay type: binding, bovine PrP^C
[6] = test system: rat liver lysosomes; assay type: in vivo; conditions: lysosomes from liver of leupeptin-treated vs untreated rats
Method: FIG. 6. Identification of 91-kDa GPBP isoform in rat liver lysosomes and evidence for processing to 44-47-kDa isoforms. In A, similar amounts (˜50 μg) of lysosomal fractions from liver of untreated (C) or leupeptin-treated (L) rats were analyzed by Western blot using Mab6 antibodies. In B, lysosomal fractions as in A were further fractioned and whole (W), soluble (S) or non-soluble (M) fractions were similarly analyzed.
Subcellular fractioning and related studies. Rat liver subcellular fractionation was essentially performed as indicated in Aniento, F., Roche, E., Cuervo, A. M., Knecht, E. (1993). J. Biol. Chem. 268, 10463-10470. For some purposes lysosomal fractions (freshly prepared entire lysosomes) were dispersed in pure water and subjected to ten consecutive cycles of freezing and thawing to alter lysosomal membrane integrity (broken lysosomes). For other purposes, lysosomal fractions were similarly disrupted in the presence of protease inhibitors (PMSF 2 mM, leupeptin 0.2 mM and EDTA 2 mM) and subsequently centrifuged 130,000×g for 10 min at room temp to separate the soluble lysosomal fraction (also called here lysosomal extract) from the non-soluble fraction which, after rinse with 0.3 M saccharose in 10 mM MOPS pH 7.2, was used as the lysosomal membrane fraction.

[7] = test system: GPBP mRNA; assay: Silencing of GPBP expression in 293 cells (Western blot); assay type: cell-based, human; conditions: 293 cells transfected with silencer plasmid
Method: FIG. 4. Cellular 91- and 120-kDa GPBP-related polypeptides are translation products of GPBP mRNA. Similar amounts (˜50 μg) of lysates from non-transfected 293 cells (1) or from 293 cells transfected with a plasmid encoding for SiGFP (2), SiGPBP (3), SiGPBP/Δ26-1 (4) SiGPBP/Δ26-2 (5), SiGPBP/Δ26-3 (6), SiGPBP/Δ26-4 (7) were analyzed by Western blot using the indicated antibodies.
SimRNA production. Silencers were generated using pSilencer 2.1-U6 hygro plasmid (Ambion) following manufacturers recommendations. The oligonucleotide pairs used were:
Recombinant protein expression in cultured cells. The pcDNA3-based contructs containing the cDNA encoding the different human proteins of interest were used to transfect human 293 cells using standard calcium phosphate procedures in ProFection Mammalian Transfection System (Promega). 24-48 h after transfection cell lysates were used for Western blot, precipitation or immunoprecipitation studies. Cells expressing GPBP or derived deletion mutants were collected on ice with 50 mM Tris HCl pH 7.4, 0.05% Triton X-100, 1 mM PMSF and 5 μg/ml leupeptin, disrupted by vortex and insoluble material discarded by centrifugation at 14.000 rpm in Eppendorf at 4° C. for 10 min and supernatant used for Western blot analysis.

[8] = target: T2, GPBP (Homo sapiens, UniProt Q9Y5P4); assay: Auto-phosphorylation of GPBP deletion mutant at pH 5; assay type: biochemical
T2 sequence (Q9Y5P4 1-299): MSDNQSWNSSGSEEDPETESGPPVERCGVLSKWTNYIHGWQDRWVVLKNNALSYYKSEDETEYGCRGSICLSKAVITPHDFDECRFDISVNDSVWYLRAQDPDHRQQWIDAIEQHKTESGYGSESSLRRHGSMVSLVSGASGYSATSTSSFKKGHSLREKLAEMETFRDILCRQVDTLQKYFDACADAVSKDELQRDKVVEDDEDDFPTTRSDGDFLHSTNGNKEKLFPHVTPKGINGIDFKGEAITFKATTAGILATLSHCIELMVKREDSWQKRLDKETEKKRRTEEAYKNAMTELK

## NCCCN(CCCN)CCCCN(CCCN)CCCN [DAB-Am-4, polypropylenimine tetraamine dendrimer, reference compound]
[1]
  histological changes: not observed histological changes of relevance
[2]
  effect on GPBP autophosphorylation at decreasing concentrations: activation
  GPBP kinase activity in vitro (autophosphorylation): potent activator; also recorded: caused induction
[3]
  α3(IV)NC1 conformer production in cultured cells: potent activator
[3]; listed as DAB-Am4
  α3(IV)NC1 conformer production in cultured cells: efficient increase in conformer production
[4]; 4-6 month-old NZW, 1 μg/g i.p. 3 times per week, 12 weeks
  progression of the glomerulopathy: acceleration of the degenerative process, resulting in premature glomerulosclerosis at 7-9 month of age
[4]; NZW, DAB-Am-4 treatment
  morphological pattern of disease progression: progression through Stages 3b and 4b

## CN([C@@H](Cc1ccc(OS(=O)(=O)c2cccc3cnccc23)cc1)C(=O)N1CCN(c2ccccc2)CC1)S(=O)(=O)c1cccc2cnccc12 [KN62, 1-[N,O-bis-(5-Isoquinolinesulfonyl)-N-methyl-L-tyrosyl]-4-phenylpiperazine, reference compound]
[2]
  GPBP kinase activity in vitro (autophosphorylation): inhibited GPBP kinase activity in vitro to a larger extent than KN93
[3]
  α3(IV)NC1 conformer production in cultured cells: reduced cell conformer production

## Cl.N [NH4Cl]
[3]; 20 mM NH4Cl
  α3(IV)NC1 conformer production: reduced conformer production

## CC[C@@H](C)[C@@H](NC(=O)[C@@H](CS)NC(=O)[C@@H](Cc1c[nH]cn1)NC(=O)[C@@H](CO)NC(=O)[C@@H](CC(C)C)NC(=O)[C@H](NC(=O)[C@@H](C)NC(=O)[C@@H](CC(C)C)NC(C)=O)[C@H](C)O)C(=O)N[C@H](CCC(=O)O)C(=O)N[C@H](CC(C)C)C(=O)N[C@H](CCSC)C(=O)N[C@@H](C(=O)N[C@H](CCCCN)C(=O)N[C@H](CCCNC(=N)N)C(N)=O)C(C)C [Q2D]
[5]
  GPBP-PrP^C complex formation: fully inhibited
[2]
  effect on GPBP autophosphorylation at decreasing concentrations: inhibition
  GPBP kinase activity in vitro (autophosphorylation): more efficient inhibiting
[2]; listed as D-amino acid version of Q2
  GPBP kinase activity in vitro (autophosphorylation): more potent inhibitory activity

## CC[C@H](C)[C@H](NC(=O)[C@H](CS)NC(=O)[C@H](Cc1c[nH]cn1)NC(=O)[C@H](CO)NC(=O)[C@H](CC(C)C)NC(=O)[C@@H](NC(=O)[C@H](C)NC(=O)[C@H](CC(C)C)NC(C)=O)[C@@H](C)O)C(=O)N[C@@H](CCC(=O)O)C(=O)N[C@@H](CC(C)C)C(=O)N[C@@H](CCSC)C(=O)N[C@H](C(=O)N[C@@H](CCCCN)C(=O)N[C@@H](CCCNC(=N)N)C(N)=O)C(C)C [Q2L]
[5]
  GPBP-PrP^C complex formation: efficiently inhibited

## CC(=O)N[C@@H](CC(C)C)C(=O)N[C@@H](CC(C)C)C(=O)N[C@H](C=O)CCCNC(=N)N [leupeptin]
[3]
  presence of α3(IV)NC1 proteolytic products: inhibited the presence of proteolytic products
[6]
  lysosomal GPBP immunoreactive polypeptides: 44-47-kDa polypeptides significantly diminished

## CN[C@@H]1C[C@H]2O[C@@](C)([C@@H]1OC)n1c3ccccc3c3c4c(c5c6ccccc6n2c5c31)C(=O)NC4 [staurosporine, reference compound]
[2]
  GPBP kinase activity in vitro (autophosphorylation): efficiently impaired

## Ac-EKTAGKPILF-OH [Q4]
[2]
  GPBP kinase activity in vitro (autophosphorylation): inhibited GPBP autophosphorylation in a more limited manner; also recorded: poor inhibitor
[3]
  α3(IV)NC1 conformer production in cultured cells: reduction in conformer production; also recorded: more limited inhibitory effect

## Ac-VLMASLETLCRIHKI-NH2 [Q2Lr, reference compound]
[5]
  GPBP-PrP^C complex formation: no effect on complex formation

## SiGPBP/Δ26-1: silencer of GPBP and/or GPBPΔ26 expression, SEQ ID NO:47 (AAACUACAUUCAUGGGUGGCA; listed as RNA, chemistry not given here)
[7]
  GPBP expression (endogenous 91- and 120-kDa GPBP): diminish GPBP and/or GPBPΔ26 expression

## SiGPBP/Δ26-2: silencer of GPBP and/or GPBPΔ26 expression, SEQ ID NO:48 (guide AAACAGAGUAUGGCUGCAGAG; listed as RNA, chemistry not given here)
[7]
  GPBP expression (endogenous 91- and 120-kDa GPBP): silenced endogenous GPBP more efficiently than SiGPBP/Δ26-4
[7]; listed as siGPBPΔ26-2
  GPBP expression (endogenous 91- and 120-kDa GPBP): diminish GPBP and/or GPBPΔ26 expression

## SiGPBP/Δ26-3: silencer of GPBP and/or GPBPΔ26 expression, SEQ ID NO:49 (guide AAGUACUUUGAUGCCUGUGCU; listed as RNA, chemistry not given here)
[7]
  GPBP expression (endogenous 91- and 120-kDa GPBP): diminish GPBP and/or GPBPΔ26 expression

## SiGPBP/Δ26-4: silencer of GPBP and/or GPBPΔ26 expression, SEQ ID NO:50 (guide AAAGGCGUCACAGGACAUGAA; listed as RNA, chemistry not given here)
[7]
  GPBP expression (endogenous 91- and 120-kDa GPBP): diminish GPBP and/or GPBPΔ26 expression

## SiGPBP: silencer of GPBP expression, SEQ ID NO:51 (AAGCCCUAUAGUCGCUCUUCC; listed as RNA, chemistry not given here)
[7]
  GPBP expression (endogenous 91- and 120-kDa GPBP): diminish GPBP and/or GPBPΔ26 expression

B1: residues 1-299 of GPBP: C-terminal deletion mutant of GPBP with approximately 44-kDa molecular mass, SEQ ID NO:38 (protein)
chain: MSDNQSWNSSGSEEDPETESGPPVERCGVLSKWTNYIHGWQDRWVVLKNNALSYYKSEDETEYGCRGSICLSKAVITPHDFDECRFDISVNDSVWYLRAQDPDHRQQWIDAIEQHKTESGYGSESSLRRHGSMVSLVSGASGYSATSTSSFKKGHSLREKLAEMETFRDILCRQVDTLQKYFDACADAVSKDELQRDKVVEDDEDDFPTTRSDGDFLHSTNGNKEKLFPHVTPKGINGIDFKGEAITFKATTAGILATLSHCIELMVKREDSWQKRLDKETEKKRRTEEAYKNAMTELK
modifications: Derived sequence
[8]
  auto-phosphorylation activity: greater auto-phosphorylation activity at pH 5 than full sized GPBP
